Data: ChEMBL document CHEMBL4725232, “Synthesis and biological activity of new bisbenzofuran-imidazolium salts” (Bioorg Med Chem Lett, 2020)

Experiments:
Format in all cases: functional, cell-based
[1] = system: MCF7; test: Antiproliferative activity against human MCF7 cells by MTS assay
[2] = system: A549; test: Antiproliferative activity against human […] cells by MTS assay
[3] = system: SW480; test: Antiproliferative activity against human SW480 cells by MTS assay
[4] = system: SMMC-7721; test: Antiproliferative activity against human SMMC7721 by MTS assay
[5] = system: HL-60; test: Antiproliferative activity against human HL60 cells by MTS assay

Row | SMILES | IC50 [1] [µM] | IC50 [2] [µM] | IC50 [3] [µM] | IC50 [4] [µM] | IC50 [5] [µM]
1 | O=C(C[n+]1ccn(CC=C(c2cc3ccccc3o2)c2cc3ccccc3o2)c1)c1ccc(Br)cc1 | 7.29 | 8.47 | 6.17 | 7.86 | 8.4
2 | Cc1cc2c(cc1C)[n+](CC(=O)c1ccc3ccccc3c1)cn2CC=C(c1cc2ccccc2o1)c1cc2ccccc2o1 | 2.38 | 5.34 | 2.36 | 5.9 | 3.14
3 | O=C(C[n+]1cn(CC=C(c2cc3ccccc3o2)c2cc3ccccc3o2)c2ccccc21)c1ccc(-c2ccccc2)cc1 | 2.42 | 7.23 | 5.94 | 6.69 | 5.33
4 | O=C(C[n+]1ccn(CC=C(c2cc3ccccc3o2)c2cc3ccccc3o2)c1)c1ccccc1 | 11.2 | > 20 | 6.44 | > 20 | 6.95
5 | Cc1cc2c(cc1C)[n+](CC(=O)c1ccccc1)cn2CC=C(c1cc2ccccc2o1)c1cc2ccccc2o1 | 3.42 | 7.08 | 4.3 | 6.38 | 4.33
6 | COc1ccc(C(=O)C[n+]2ccn(CC=C(c3cc4ccccc4o3)c3cc4ccccc4o3)c2)cc1 | > 20 | > 20 | > 20 | > 20 | > 20
7 | C(Cn1cnc2ccccc21)=C(c1cc2ccccc2o1)c1cc2ccccc2o1 | > 20 | > 20 | > 20 | > 20 | > 20
8 | O=C(C[n+]1ccn(CC=C(c2cc3ccccc3o2)c2cc3ccccc3o2)c1)c1ccc2ccccc2c1 | 7.83 | > 20 | 6.97 | > 20 | 7.73
9 | Cc1cc2c(cc1C)[n+](CC(=O)c1ccc(-c3ccccc3)cc1)cn2CC=C(c1cc2ccccc2o1)c1cc2ccccc2o1 | 8.67 | 7.68 | 6.42 | 9.04 | 6.93
10 | O=C(C[n+]1ccn(CC=C(c2cc3ccccc3o2)c2cc3ccccc3o2)c1)c1ccc(-c2ccccc2)cc1 | 7.57 | 9.05 | 7.2 | 8.04 | 7.25
11 | COc1ccc(C(=O)C[n+]2cn(CC=C(c3cc4ccccc4o3)c3cc4ccccc4o3)c3cc(C)c(C)cc32)cc1 | 7.97 | 8.25 | 5.8 | 9.46 | 8
12 | Cc1cc2c(cc1C)[n+](CC(=O)c1ccc(Br)cc1)cn2CC=C(c1cc2ccccc2o1)c1cc2ccccc2o1 | 7.05 | 7.42 | 7.93 | 7.81 | 6.27
13 | Cc1cc2ncn(CC=C(c3cc4ccccc4o3)c3cc4ccccc4o3)c2cc1C | > 20 | > 20 | > 20 | > 20 | > 20
14 | Cc1nc2ccccc2n1CC=C(c1cc2ccccc2o1)c1cc2ccccc2o1 | > 20 | > 20 | > 20 | > 20 | > 20
15 | C(Cn1ccnc1)=C(c1cc2ccccc2o1)c1cc2ccccc2o1 | > 20 | > 20 | > 20 | > 20 | > 20

Now those with a lower IC50 [1], led by results:

Row | IC50 [1] [µM] | IC50 [2] [µM] | IC50 [3] [µM] | IC50 [4] [µM] | IC50 [5] [µM] | SMILES
16 | 1.72 | 7.43 | 0.8 | 6.84 | 2.43 | Cc1n(CC=C(c2cc3ccccc3o2)c2cc3ccccc3o2)c2ccccc2[n+]1CC(=O)c1ccc(Br)cc1
17 | 1.63 | 6.46 | 1.43 | 6.05 | 1.73 | O=C(C[n+]1cn(CC=C(c2cc3ccccc3o2)c2cc3ccccc3o2)c2ccccc21)c1ccc(Br)cc1
18 | 1.56 | 6.02 | 1.92 | 3.93 | 1.44 | O=C(C[n+]1cn(CC=C(c2cc3ccccc3o2)c2cc3ccccc3o2)c2ccccc21)c1ccccc1
19 | 1.44 | 1.54 | 1.77 | 1.46 | 1.63 | O=C(C[n+]1cn(CC=C(c2cc3ccccc3o2)c2cc3ccccc3o2)c2ccccc21)c1ccc2ccccc2c1
20 | 1.23 | 1.96 | 1.48 | 1.67 | 1.41 | Cc1n(CC=C(c2cc3ccccc3o2)c2cc3ccccc3o2)c2ccccc2[n+]1CC(=O)c1ccc(-c2ccccc2)cc1
21 | 1.02 | 2.32 | 1.47 | 1.53 | 1.19 | COc1ccc(C(=O)C[n+]2cn(CC=C(c3cc4ccccc4o3)c3cc4ccccc4o3)c3ccccc32)cc1
22 | 0.97 | 1.58 | 1.54 | 1.51 | 1.58 | Cc1n(CC=C(c2cc3ccccc3o2)c2cc3ccccc3o2)c2ccccc2[n+]1CC(=O)c1ccc2ccccc2c1
23 | 0.8 | 3.5 | 0.79 | 1.34 | 1.08 | Cc1n(CC=C(c2cc3ccccc3o2)c2cc3ccccc3o2)c2ccccc2[n+]1CC(=O)c1ccccc1
24 | 0.64 | 1.47 | 0.88 | 1.38 | 1.11 | COc1ccc(C(=O)C[n+]2c(C)n(CC=C(c3cc4ccccc4o3)c3cc4ccccc4o3)c3ccccc32)cc1
